Assay results as given in patent publication EP4541891A1, “NOVEL LRP1-BINDING PEPTIDE” (Ichimaru Pharcos Co., Ltd., priority 2022, dated 2025).
Bridge positions count the residues as written; N and C are the ends. Square brackets hold non-standard residues; d marks the D form. Ends that are not written are not given here. Peptide text beside a SMILES is read from it. * marks the point of attachment. 5FAM = O=C1OC2(c3ccc(O)cc3Oc3cc(O)ccc32)c2ccc(C(=O)*)cc21; Biotin = O=C1N[C@H]2[C@H](CS[C@H]2CCCCC(=O)*)N1; Nle = CCCC[C@H](N)C(=O)O

Columns and labels:
[1] = tested on: LRP1 cluster 4-Fc chimeric proteins; assay: Competitive binding assay by ELISA against Sequence 46
Method: (§1) For comparison between the peptide of Sequence 1 with amino acid substitutions and the peptide of Sequence 2 in terms of the LRP1 binding activity and the resistance to protease degradation, a competitive binding assay by ELISA shown in FIG. 2 was constructed. Immediately (zero hour) or 24 hours after the mixing of the peptide of Sequence 2 or the amino acid-substituted peptide with mouse plasma at 37°C, the mixture was diluted to sufficiently lower the plasma concentration to any desired final concentration, and mixed with Sequence 46 (500 nM). This mixture was subjected to the competitive binding assay described above. The binding of Sequence 46 to the LRP1 cluster 4-Fc chimera proteins competes with the binding of Sequence 2 or the amino acid-substituted peptide to the LRP1 cluster 4-Fc chimera proteins, and thus is inhibited depending on the concentration of Sequence 2 or the amino acid-substituted peptide. That is, the binding activity of Sequence 2 or the amino acid-substituted peptide to the LRP1 cluster 4-Fc chimera proteins is detected as competitive inhibitory activity against the binding of Sequence 46. Regarding the binding value of Sequence 46 to the wells in which the LRP1 cluster 4-Fc chimeric proteins were not captured as 100% inhibitory activity and the binding value of Sequence 46 to the wells in which Sequence 2 or the amino acid-substituted peptide was not added as 0% inhibitory activity, the inhibitory activity values of Sequence 2 and the amino acid-substituted peptide were calculated in %.
Sequence 2 incubated with plasma for zero hour inhibited the binding of Sequence 46 in a concentration-dependent manner. […] However, the binding of Sequence 46 (500 nM) in wells loaded with 2,000 nM equivalent Sequence 2 averaged 50.6%.
Immediately or 24 hours after Sequences 1 to 44 were mixed with mouse plasma at 37°C, the mixtures were diluted to sufficiently lower the plasma concentration to a final concentration of 2,000 nM, and mixed with Sequence 46 (500 nM). The obtained mixtures were subjected to the above-described competitive binding assay. […] Other sequences tended to have diminished inhibitory activities.

[2] = Resistance to protease degradation in mouse plasma, read out by competitive binding ELISA; format: in vitro ADME; details: 37°C, inferred from loss of inhibitory activity
Method: as §1, with “The binding of Sequence 46 to the LRP1 cluster 4-Fc chimera proteins competes with the binding of Sequence 2 or the amino acid-substituted peptide to the LRP1 cluster 4-Fc chimera proteins, and thus is inhibited depending on the concentration of Sequence 2 or the amino acid-substituted peptide.” left out, “%. […]” for “%.”

[3] = tested on: LRP1 cluster 4-Fc chimeric proteins; assay: ELISA binding test of biotin-labeled peptides; details: for binding to the LRP1 cluster 4-Fc chimeric proteins: biotinylated peptide 1,000 nM to 1.4 nM; for EC50: biotinylated peptide, SA-HRP detection, absorbance at 450 nm, n = 4
Method: (§2) To evaluate the binding activity of the peptides to LRP1, an ELISA-based binding assay was constructed. The ELISA method will be briefly described below. First, a goat antihuman IgG-Fcγ polyclonal antibody (Catalog No. 109-0005-008, manufactured by Jackson Immuno Research) was added to a 96-well Maxisorp plate (Catalog No. 439454, manufactured by Nunc) at 1 µg/50 µL/well using D-PBS, followed by coating overnight at 4°C. Then, 0.5% BSA/D-PBS was further added at 300 µL/well, and blocking was carried out at room temperature for 30 minutes. After washing the plate with 0.1% Tween 20/D-PBS, LRP1 recombinant proteins, namely, LRP1 cluster 2-Fc chimeric proteins (Catalog No. 2368-L2-050, manufactured by R & D Systems), LRP1 cluster 3-Fc chimeric proteins (Catalog No. 48248-L3-050, manufactured by R & D Systems), or LRP1 cluster 4-Fc chimeric proteins (Catalog No. 5395-L4-050, manufactured by R & D Systems), were added at 100 ng/50 µL/well using 0.5% BSA/D-PBS, and allowed to react with the coated antibodies at room temperature for 30 minutes. After washing the plate with 0.1% Tween 20/PBS, Sequences 45 and 46, which were biotinylated peptides, were prepared at an arbitrary concentration using 0.5% BSA/D-PBS, and added at 50µL/well. After causing a reaction at room temperature for 30 minutes, the plate was washed with 0.1% Tween 20/D-PBS. Sequences 45 and 46 bound to the LRP1 recombinant proteins captured on the plate were detected with SA-HRP (Catalog No. ab7403, manufactured by Abeam). For quantification of HRP, TMB ELISA Substrate Solution (Catalog No. 34028, manufactured by Thermo Fisher) was used to measure absorbance at 450 nm.

[4] = tested on: LRP1 cluster 2-Fc chimeric proteins; assay: ELISA binding test of biotin-labeled peptides; details: biotinylated peptide 1,000 nM to 1.4 nM
Method: as §2

[5] = tested on: LRP1 cluster 3-Fc chimeric proteins; assay: ELISA binding test of biotin-labeled peptides; details: biotinylated peptide 1,000 nM to 1.4 nM
Method: as §2

[6] = target: LRP1 cluster 4-Fc chimeric proteins (UniProt Q07954); assay: competitive ELISA, LRP1 cluster 4-Fc captured; Sequence 2 at 500 nM (zero hour in mouse plasma) against biotin-Sequence 46 500 nM
UniProt Q07954, sequence (Q07954 3293-3783, stated change not applied): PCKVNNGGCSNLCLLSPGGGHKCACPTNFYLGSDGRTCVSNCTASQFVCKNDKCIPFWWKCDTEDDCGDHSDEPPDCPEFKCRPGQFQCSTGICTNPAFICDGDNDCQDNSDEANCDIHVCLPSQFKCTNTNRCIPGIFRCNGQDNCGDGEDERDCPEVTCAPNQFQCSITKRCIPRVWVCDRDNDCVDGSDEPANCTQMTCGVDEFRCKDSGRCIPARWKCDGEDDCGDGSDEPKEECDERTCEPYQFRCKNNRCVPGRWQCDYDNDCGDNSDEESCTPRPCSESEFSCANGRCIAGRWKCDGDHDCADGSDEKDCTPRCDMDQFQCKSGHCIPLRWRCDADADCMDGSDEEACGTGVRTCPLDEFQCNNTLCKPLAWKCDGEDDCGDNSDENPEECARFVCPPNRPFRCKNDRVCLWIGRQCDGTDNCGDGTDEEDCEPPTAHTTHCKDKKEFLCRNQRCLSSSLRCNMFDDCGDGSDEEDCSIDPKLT

[7] = target: LRP1 cluster 4-Fc chimeric proteins (UniProt Q07954); assay: competitive ELISA, LRP1 cluster 4-Fc captured; Sequence 2 at 2,000 nM equivalent after 24 h in mouse plasma at 37 C (about 75% degraded) against biotin-Sequence 46 500 nM
[8] = target: LRP1 cluster 4-Fc chimeric proteins (UniProt Q07954); assay: competitive ELISA, LRP1 cluster 4-Fc captured; peptide 2,000 nM against biotin-Sequence 46 500 nM

In the case of `CCCC[C@@H]1NC(=O)[C@H](CCC(=O)O)NC(=O)[C@H](C)NC(=O)[C@H](CC(C)C)NC(=O)[C@H](CCCC)NC(=O)[C@H](Cc2ccc(O)cc2)NC(=O)[C@H](CCCCN)NC(=O)[C@H](Cc2ccc(O)cc2)NC(=O)[C@H]([C@@H](C)O)NC(=O)[C@@H](NC(=O)[C@@H]2CCCN2C(=O)[C@@H](NC(=O)CNC(=O)[C@H](CCCCNC(=O)c2ccc3c(c2)C(=O)OC32c3ccc(O)cc3Oc3cc(O)ccc32)NC(C)=O)[C@@H](C)O)CSSC[C@@H](C(=O)O)NC1=O` [Sequence 2, Ac-Lys(5FAM)-Gly-Thr-Pro-c(Cys-Thr-Tyr-Lys-Tyr-Nle-Leu-Ala-Glu-Nle-Cys)-OH] (Ac-K(5FAM)GTPCTYKY[Nle]LAE[Nle]C-OH; disulfide 5-15), the inhibitory activity ([1]; peptide 2,000 nM versus Sequence 46 (500 nM), time point not stated) is reported as 79.4%, the “binding of Sequence 46 (500nM)” value ([1]; wells loaded with 2,000 nM equivalent Sequence 2, incubated with mouse plasma for 24 hours at 37°C, average) is reported as 50.6% and the “binding of Sequence 46 (500nM)” value ([1]; wells with 500 nM Sequence 2, incubated with mouse plasma for zero hour, n = 4, average) is reported as 52.4%. The “degraded during the 24-hour incubation with the mouse plasma” value [2] was “approximately 75%”.

With `CCCC[C@@H]1NC(=O)[C@H](CCC(=O)O)NC(=O)[C@H](C)NC(=O)[C@H](CC(C)C)NC(=O)[C@H](CCCC)NC(=O)[C@H](Cc2ccc(O)cc2)NC(=O)[C@H](CCCCN)NC(=O)[C@H](Cc2ccc(O)cc2)NC(=O)[C@H]([C@@H](C)O)NC(=O)[C@@H](NC(=O)[C@@H]2CCCN2C(=O)[C@@H](NC(=O)CNC(=O)[C@H](CCCCNC(=O)CCCC[C@@H]2SC[C@@H]3NC(=O)N[C@@H]32)NC(C)=O)[C@@H](C)O)CSSC[C@@H](C(=O)O)NC1=O` [Sequence 46, Ac-Lys(Biotin)-Gly-Thr-Pro-c(Cys-Thr-Tyr-Lys-Tyr-Nle-Leu-Ala-Glu-Nle-Cys)-OH] (Ac-K(Biotin)GTPCTYKY[Nle]LAE[Nle]C-OH; disulfide 5-15) the “binding to the LRP1 cluster 4-Fc chimeric proteins” value [3] was “selectively and in a peptide concentration-dependent manner”, the EC50 [3] was 11 nM and the “binding to the LRP1 cluster 2-Fc chimeric proteins” value [4] was “little or no binding”. The “binding to the LRP1 cluster 3-Fc chimeric proteins” value [5] was “little or no binding”.

For “Ac-K(Biotin)GTPCTYKY[Nle]LAE[Nle]C-OH (cysteine pairing not given here) [Sequence 45]”, the “binding to the LRP1 cluster 4-Fc chimeric proteins” value [3] was “selectively and in a peptide concentration-dependent manner”, the EC50 [3] was 10.5 nM and the “binding to the LRP1 cluster 2-Fc chimeric proteins” value [4] was “little or no binding”. For the same molecule, the “binding to the LRP1 cluster 3-Fc chimeric proteins” value [5] was “little or no binding”.

Ac-K(5FAM)GTPCTYKY[Nle]LAE[Nle]C (disulfide 5-15) [SEQUENCE 2] gave a binding of Sequence 46 (%) in the presence of the peptide [6] of 52.4%, a binding of Sequence 46 (%) in the presence of the peptide [7] of 50.6% and an inhibitory activity (%) [8] of 79.4%.
